Experimental data as given in patent US20210275657A1, “NEOANTIGENS AND USES THEREOF” (BioNTech US Inc., priority 2018, published 2021).
Where no end group is shown, it is not given here.

Tests used:
HLA-B08:01 [1] = molecular target: T1, HLA-B08:01 (Homo sapiens, UniProt P01889, A93T/A95T/D138N/E176V/E187T/K202T/Q94N/R180D/S35A/V36M/Y33D/Y91F); test: biochemical
HLA-B08:01 [2] = molecular target: T1, HLA-B08:01; test: Stability measurements, pMHC-I dissociation with 125I light chain (Example 20); format: binding; settings: for Average half-life: average of experiments 1 and 2
Description: (§1) To measure the binding stability of peptides to Class I MHC, synthetic genes encoding biotinylated MHC-I heavy and light chains are expressed in E. coli and purified from inclusion bodies using standard methods. […] These reactions were carried out in streptavidin coated microplates to bind the biotinylated MHC-I heavy chains to the surface and allow measurement of radiolabeled light chain to monitor complex formation. Dissociation was initiated by addition of higher concentrations of unlabeled light-chain and incubation at 37° C. Stability was defined as the length of time in hours it takes for half of the complexes to dissociate, as measured by scintillation counts. Duplicate measurements were performed. The average of the two measurements was taken as the stability.

indicated HLA alleles [3] = test: Stability of GATA3 neoORF neoepitopes with the HLA alleles (Example 9, Table 4); format: binding, human
Description: (§2) Multiple peptides containing the neoepitopes in Table 4 below were expressed or loaded onto antigen presenting cells (APCs). Mass spectrometry was then performed and the affinity of the neoepitopes for the indicated HLA alleles and stability of the neoepitopes with the HLA alleles was determined.

indicated HLA alleles [4] = molecular target: T2, indicated HLA alleles (Homo sapiens, UniProt P04439); test: Affinity of mutant BTK neopeptides for indicated HLA alleles; format: binding
Description: (§3) Multiple peptides containing neoepitopes in the table below were either expressed or loaded onto antigen presenting cells. Mass spectrometry was then performed and the affinity of the neoepitopes for indicated HLA alleles were determined, and the stability of the neoepitopes with the HLA alleles were determined.

indicated HLA alleles [5] = test: as above; format: binding, human
Description: as §3

indicated HLA alleles [6] = molecular target: T2, indicated HLA alleles; test: Stability of mutant BTK neopeptides with the HLA alleles; format: binding; settings: BTK, C481S; HLA A03.01
Description: as §3

indicated HLA alleles [7] = test: as above; format: binding, human
Description: as §3

indicated HLA alleles [8] = molecular target: T3, indicated HLA alleles (Homo sapiens, UniProt P01889); test: Affinity of GATA3 neoORF neoepitopes for the indicated HLA alleles (Example 9, Table 4); format: binding
Description: as §2

HLA-B07:02 [9] = molecular target: T4, HLA-B07:02 (Homo sapiens, UniProt P01889); test: Stability measurements, pMHC-I dissociation with 125I light chain (Example 20); format: binding; settings: for Average half-life: average of experiments 1 and 2
Description: as §1

HLA-B07:02 [10] = molecular target: T4, HLA-B07:02; test: Affinity measurements, competition with radiolabeled peptide (Example 20); format: binding
indicated HLA alleles [11] = molecular target: T3, indicated HLA alleles; test: Affinity of mutant BTK neopeptides for indicated HLA alleles; format: binding
Description: as §3

CD8+ T cells = test: Immunogenicity on MHC I: FLT3L/mDC long term stimulation of healthy donor PBMCs, multimer readout (Example 23); settings: A02:01
[12] = test system: antigen specific CD8+ T cells; test: Antigen specific CD8+ T cell induction monitored with pMHC multimers (Example 10); format: cell-based, human
Description: PBMC samples from a human donor were used to perform antigen specific T cell induction. CD8^+ T cell inductions were analyzed after manufacturing T cells. Cell samples can be taken out at different time points for analysis. pMIHC multimers were used to monitor the fraction of antigen specific CD8^+ T cells in the induction cultures. […] FIG. 9A depicts an exemplary result of a T cell response assay using PBMCs from 6 different healthy donors showing the fraction of antigen specific CD8^+ T cells that responded to […] peptide analyzed by flow cytometry after stimulation or induction. […] FIG. 9B depicts an exemplary result of a T cell response assay using PBMCs from a healthy donor showing fraction of antigen specific CD8^+ T cells that responded to […] peptide analyzed by flow cytometry after stimulation or induction.

HLA-A02:01 [13] = molecular target: T5, HLA-A02:01 (Homo sapiens, UniProt P04439, D140Y/D185E/D98H/E176V/E277Q/G131W/G231S/I119V/I121R/I166T/I218V/L300P/L318F/N151K/N90K/P208A/P217A/Q86G/Q94H/R138H/R169H/T345S); test: Detection of GATA3 neoORF peptides by mass spectrometry (Example 8); format: cell-based; settings: 293T cells transduced with GATA3 neoORF lentiviral vector, expressing HLA-A02:01; peptides eluted from HLA-peptide complexes, MS/MS
indicated HLA alleles [14] = test: Affinity of GATA3 neoORF neoepitopes for the indicated HLA alleles (Example 9, Table 4); format: binding, human; settings: read-out: Observed MHC affinity
Description: as §2

HLA-A02:01 [15] = molecular target: T5, HLA-A02:01; test: Stability measurements, pMHC-I dissociation with 125I light chain (Example 20); format: binding; settings: for Average half-life: average of experiments 1 and 2
Description: as §1

HLA-B07:02 [16] = molecular target: T4, HLA-B07:02; test: Detection of GATA3 neoORF peptides by mass spectrometry (Example 8); format: cell-based; settings: 293T cells transduced with GATA3 neoORF lentiviral vector, expressing HLA-B07:02; eluted peptides, MS/MS
HLA-A02:01 [17] = molecular target: T5, HLA-A02:01; test: Affinity measurements, competition with radiolabeled peptide (Example 20); format: binding
indicated HLA alleles [18] = molecular target: T2, indicated HLA alleles; test: Affinity of GATA3 neoORF neoepitopes for the indicated HLA alleles (Example 9, Table 4); format: binding
Description: as §2

[19] = ovarian carcinoma patients, poly-ICLC with NYESO-1 peptide vaccine (in addition to Montanide), phase 1 study; cited from earlier work

With `CC[C@H](C)[C@H](NC(=O)[C@H](CCCCN)NC(=O)[C@H](CO)NC(=O)[C@H](CCC(=O)O)NC(=O)[C@H](C)NC(=O)[C@H](CCCCN)NC(=O)[C@H](CC(C)C)NC(=O)[C@@H](N)Cc1ccccc1)C(=O)N[C@@H](CCSC)C(=O)N[C@@H](Cc1ccccc1)C(=O)O` the IC50 (HLA-B08:01 [1]) was 90 nM, the “Experiment 2 half-life” value (HLA-B08:01 [2]) was 0.0 h and the Average half-life (HLA-B08:01 [2]) was 0.0 h. For the same molecule, the “Observed MHC stability” value (indicated HLA alleles [3]; Allele B08:01) was 0 h.

With `CC[C@H](C)[C@H](N)C(=O)N[C@@H](CCSC)C(=O)N[C@@H](CCCCN)C(=O)N1CCC[C@H]1C(=O)N[C@@H](CCCCN)C(=O)N[C@@H](CCCNC(=N)N)C(=O)N[C@@H](CC(=O)O)C(=O)NCC(=O)N[C@@H](Cc1ccc(O)cc1)C(=O)N[C@@H](CCSC)C(=O)O` the IC50 (HLA-B08:01 [1]) was 40.2 nM, the “Experiment 1 half-life” value (HLA-B08:01 [2]) was 0.4 h and the “Experiment 2 half-life” value (HLA-B08:01 [2]) was 0.4 h. The Average half-life (HLA-B08:01 [2]) was 0.4 h and the “Observed MHC stability” value (indicated HLA alleles [3]; Allele B08:01) was 0.4 h.

Molecule `CSCC[C@H](N)C(=O)N[C@@H](C)C(=O)N[C@@H](CC(N)=O)C(=O)NCC(=O)N[C@@H](CO)C(=O)N[C@@H](CC(C)C)C(=O)N[C@@H](CC(C)C)C(=O)N[C@@H](CC(N)=O)C(=O)N[C@@H](Cc1ccc(O)cc1)C(=O)O` has a Kd (indicated HLA alleles [4]) of 35.6 nM, a Kd (indicated HLA alleles [5]; BTK, C481S, HLA A01.01) of 439 nM and a Kd (indicated HLA alleles [5]; BTK, C481S, HLA A11.01) of 536 nM. For the same molecule, the “Stability (1/2 hr)” value (indicated HLA alleles [6]) was 0.238 h and the “Stability (1/2 hr)” value (indicated HLA alleles [7]; BTK, C481S, HLA A01.01) was 0.2164 h.

With `CSCC[C@H](N)C(=O)N[C@@H](Cc1ccccc1)C(=O)N[C@@H](C)C(=O)N[C@H](C(=O)N[C@@H](CC(C)C)C(=O)N[C@@H](CCC(N)=O)C(=O)N[C@@H](CCCNC(=N)N)C(=O)N[C@@H](CO)C(=O)N[C@@H](CO)C(=O)N[C@@H](CC(C)C)C(=O)O)[C@@H](C)O` the Kd (indicated HLA alleles [8]) was 267 nM, the “Experiment 2 half-life” value (HLA-B08:01 [2]) was 0.0 h and the Average half-life (HLA-B08:01 [2]) was 0.0 h. For the same molecule, the “Experiment 2 half-life” value (HLA-B07:02 [9]) was 0.0 h, the Average half-life (HLA-B07:02 [9]) was 0.0 h and the “Observed MHC stability” value (indicated HLA alleles [3]; Allele B07:02) was 0 h. The “Observed MHC stability” value (indicated HLA alleles [3]; Allele B08:01) was 0 h and the IC50 (HLA-B07:02 [10]) was 350 nM.

In the case of `CSCC[C@H](NC(=O)[C@H](CCC(=O)O)NC(=O)[C@H](CCCNC(=N)N)NC(=O)[C@H](CC(C)C)NC(=O)[C@H](Cc1ccc(O)cc1)NC(=O)[C@H](CC(N)=O)NC(=O)[C@H](CC(C)C)NC(=O)[C@H](CC(C)C)NC(=O)[C@@H](N)CO)C(=O)O`, the Kd (indicated HLA alleles [11]) is reported as 866 nM, the Kd (indicated HLA alleles [5]; BTK_C481S, HLA A02.01) is reported as 67.7 nM and the Kd (indicated HLA alleles [5]; BTK_C481S, HLA B08.01) is reported as 960 nM. The “Stability (1/2 hr)” value (indicated HLA alleles [7]; BTK_C481S, HLA A02.01) was 3.044 h, the “Stability (1/2 hr)” value (indicated HLA alleles [7]; BTK_C481S, HLA B07.02) was 0 h and the “Stability (1/2 hr)” value (indicated HLA alleles [7]; BTK_C481S, HLA B08.01) was 0 h.

In the case of `CSCC[C@H](NC(=O)[C@@H](N)CO)C(=O)N[C@@H](CC(C)C)C(=O)N[C@H](C(=O)NCC(=O)N1CCC[C@H]1C(=O)N1CCC[C@H]1C(=O)N[C@@H](C)C(=O)N[C@@H](CCCNC(=N)N)C(=O)N[C@H](C(=O)O)C(C)C)[C@@H](C)O`, the Percent positive inductions (CD8+ T cells; naive CD8+ induction confirmed over two stimulations) is reported as 20%, the “Number of wells with a reactive TCR” value (CD8+ T cells; of 5 wells tested, healthy donor PBMCs) is reported as 1 and the “fraction of antigen specific CD8+ T cells that responded to peptide” value ([12]; healthy donor PBMCs, flow cytometry after stimulation or induction) is reported as “increase in the fraction of antigen specific T cells”. For the same molecule, the “detected by mass spectrometry” value (HLA-A02:01 [13]) was “detected”, the Kd (indicated HLA alleles [14]; Allele A02.01) was 14 nM and the “Experiment 1 half-life” value (HLA-A02:01 [15]) was 21.7 h. For the same molecule, the “Experiment 2 half-life” value (HLA-A02:01 [15]) was 21.8 h, the Average half-life (HLA-A02:01 [15]) was 21.7 h and the “Observed MHC stability” value (indicated HLA alleles [3]; Allele A02.01) was 21.7 h.

For KPKRDGYMFL, the “detected by mass spectrometry” value (HLA-B07:02 [16]) was “detected”, the Kd (indicated HLA alleles [8]) was 98 nM and the “Experiment 1 half-life” value (HLA-B07:02 [9]) was 3.3 h. The “Experiment 2 half-life” value (HLA-B07:02 [9]) was 3.3 h, the Average half-life (HLA-B07:02 [9]) was 3.3 h and the “Observed MHC stability” value (indicated HLA alleles [3]; Allele B07:02) was 3.3 h. For the same molecule, the IC50 (HLA-B07:02 [10]) was 115 nM.

With TLQRSSLWCL the Kd (indicated HLA alleles [14]; Allele A02.01) was 118 nM, the “Experiment 1 half-life” value (HLA-A02:01 [15]) was 0.5 h and the “Experiment 2 half-life” value (HLA-A02:01 [15]) was 0.5 h. The Average half-life (HLA-A02:01 [15]) was 0.5 h, the IC50 (HLA-A02:01 [17]) was 281 nM and the “Observed MHC stability” value (indicated HLA alleles [3]; Allele A02.01) was 0.5 h.

In the case of VLPEPHLAL [VLPEPHLAL], the “healthy donors showing an increase in the fraction of antigen specific CD8+ T cells” value ([12]; PBMCs from 3 different healthy donors) is reported as “one of the three donors”, the “detected by mass spectrometry” value (HLA-A02:01 [13]) is reported as “detected” and the Kd (indicated HLA alleles [14]; Allele A02.01) is reported as 16 nM. For the same molecule, the “Observed MHC stability” value (indicated HLA alleles [3]; Allele A02.01) was 1.1 h.

For VLWTTPPLQH, the Kd (indicated HLA alleles [18]) was 16 nM, the Kd (indicated HLA alleles [14]; Allele A11:01) was 4540 nM and the “Observed MHC stability” value (indicated HLA alleles [3]; Allele A03:01) was 0.3 h. For the same molecule, the “Observed MHC stability” value (indicated HLA alleles [3]; Allele A11:01) was 0 h.

For YMANGSLLNY, the Kd (indicated HLA alleles [4]) was 95.9 nM, the Kd (indicated HLA alleles [5]; BTK, C481S, HLA A01.01) was 13.2 nM and the Kd (indicated HLA alleles [5]; BTK, C481S, HLA A11.01) was 974 nM. The “Stability (1/2 hr)” value (indicated HLA alleles [6]) was 0.2791 h and the “Stability (1/2 hr)” value (indicated HLA alleles [7]; BTK, C481S, HLA A01.01) was 0.8662 h.

In the case of poly-ICLC, the “patients showing induction of CD4+ and CD8+ T cell and antibody responses to the peptide” value [19] is given as over 90%.
